# In patent US20090286802A1, “High Dose Folic Acid Compositions for Vascular Dysfunction” (priority 2005, published 2009):
# “And” between values parts separate entries of the source, which are not always exact repeats. Equal entries are not always repeated.
# How the values were obtained:
# [1] = oral administration; cited from earlier work
# [2] = test system: patients with ischemic heart disease; experiment: Myocardial blood flow (MBF) by PET (13N-ammonia) at rest and during adenosine, folate crossover study; assay type: in vivo, human; settings: for effect on myocardial blood flow in NORMAL regions: folate vs. placebo
# Procedure: (§1) 14 patients with ischemic heart disease, age 62±12yr. (mean±SD), were enrolled in a double-blind, placebo controlled crossover trial. Basal and adenosine-stimulated myocardial blood flow (MBF) were determined by PET and myocardial flow reserve was calculated. Each patient was studied after ingestion of placebo and after ingestion of 30 mg folic acid. Myocardial zones were prospectively defined physiologically as “NORMAL” vs “ABNORMAL” based on MBF response to Ado 140 (NORMAL=MBF>1.65 ml/min/g). ABNORMAL and NORMAL zones were analyzed separately in a patient based analysis.
# (§2) Study Drug Administration. Subjects were enrolled in a double-blinded, placebo-controlled, crossover study during which folate syrup (30 mg) or similar tasting placebo syrup was administered orally in two divided doses, 10-12 hours and 1 hour prior to MBF measurements. […] Folate and placebo were administered at least one week apart, in random order, and in a double-blinded manner.
# (§3) Myocardial Blood Flow Measurements. Vasoactive medications were withheld for 3-5 half-lives, and subjects were asked to avoid caffeinated beverages for 24 h before blood flow measurements. MBF was assessed with PET (GE Medical Systems Scanditronix PC4096), approximately 1-hr after ingestion of the second dose of the study drug. PET measurements of MBF (^13N-ammonia method) were performed at rest and during the infusion of two doses of adenosine (70 and 140 mcg/kg/min), using a previously described method (Huggins, G. S., et al., Circulation 1998; 98:1291-6).
# PET Image Analysis: Three short axis rings corresponding to the proximal, middle and distal thirds of the left ventricle were constructed for each K1 scan and MBF was measured within 24 standard areas of interest as described previously (Huggins, G. S., et al., Circulation 1998; 98:1291-6). Data analysis was performed without knowledge of treatment order. To determine the variability of the MBF measurement, two readers independently assessed adenosine-stimulated MBF in 120 segments in 5 subjects and the difference between and within readers was calculated. The mean (±SD) intra-, and inter-observer difference was 0.03±0.10 and 0.03±0.17 ml/min/gm, respectively.
# Prospective Definition of Myocardial Zones. MBF in regions supplied by stenotic conduit vessels, which were expected to have abnormal dilator capacity, were prospectively examined separately from regions with normal dilator capacity. […] Accordingly, myocardial zones were defined physiologically as “NORMAL” vs. “ABNORMAL” based on MBF response to Ado 140 during the placebo condition. Myocardial zones with MBF with Ado 140 of <1.65 ml/min/g during placebo condition were defined as ABNORMAL. The corresponding myocardial regions were identified during the folate condition, and were labeled ABNORMAL regardless of their MBF during the folate condition. Values for ABNORMAL MBF were combined and averaged to obtain a single value of ABNORMAL blood flow for each patient at each condition, (placebo and folic acid) for each scan acquisition (rest, adenosine 70, or adenosine 140). A patient-based analysis of MBF was performed.
# Dilator reserve for both NORMAL and ABNORMAL zones was defined as the difference between peak MBF and rest MBF. Peak MBF was defined as the higher of the two average MBF values obtained during adenosine (i.e, the greater of the average MBF obtained during adenosine 70 vs. adenosine 140 dose). This was done, since in patients with IHD, coronary “steal” may occur (Holmvang, G., et al., Circulation 1999; 99:2510-6). and so cause underestimation of dilator reserve in ABNORMAL regions.
# [3] = test system: patients with ischemic heart disease; experiment: Hemodynamic variables (HR, RPP, blood pressure) at rest and during adenosine, double-blind placebo-controlled crossover study; assay type: in vivo, human; settings: for HR / DBP (diastolic blood pressure) / MAP (mean arterial blood pressure) / RPP (rate pressure product, SAP × HR) / SAP (systolic blood pressure): folate 30 mg oral, mean ± SD
# Procedure: as §1
# Patient Population: Adult male and female patients with coronary artery disease and normal serum homocysteine concentration (HCY<12 μM) were recruited from the greater Boston area. Coronary artery disease was defined as the presence of a >50% stenosis in at least one coronary artery identified by coronary arteriography within the last 5 years. Exclusion criteria included: inability to maintain a stable medical regimen during the study period, concurrent use of folic acid, or myocardial infarction or coronary intervention within the proceeding 3 months. The study protocol was approved by the local Human Research Committee and informed consent was obtained from each subject.
# as §2, §3
# Statistical Analysis. Data are expressed as mean±SD. A repeated measures ANOVA was performed, (Statview v 4.0, Abacus Concepts), with terms for the order of folate vs. placebo administration, patient, and observations (blood pressure, MBF and G) for the three repeated measurements (adenosine 0, 70, and 140). To control for multiple testing, prospectively defined pair-wise t-tests comparing folate to placebo at each of the three adenosine doses were performed only if there was a significant main effect for folate or a significant interaction of folate with adenosine in the ANOVA analysis. Values of P<0.05 were considered significant.
# [4] = test system: patients with stable chronic ischemic heart disease; experiment: Myocardial blood flow by PET (13N-ammonia), sildenafil crossover study; assay type: in vivo, human; settings: for Myocardial Blood Flow: abnormal zones, sildenafil 100 mg given ~2-3 hrs before, mean ± SD
# Procedure: The effects of sildenafil on myocardial blood flow were assessed. The chemical name for sildenafil is 5-[2-ethoxy-5(-4-methyl piperazine-1-ylsulfonyl)phenyl]-1-methyl-3-propyl-1,6-dihydro-7H-pyrazolo[4,3-d]pyrimidin-7-one. A study design similar to that used to test the effects of folate as described herein was used. In brief, myocardial blood flow (MBF) was measured in 14 patients with stable chronic ischemic heart disease using positron emission tomography with ^13N-ammonia. Patients were studied in double blind, placebo control, cross-over design with 100 mg sildenafil (or placebo) given ˜2-3 hrs prior to measurements of hemodynamics and myocardial blood flow at rest and during administration of adenosine at (140 μg/kg/min). Sildenafil improved myocardial blood flow in abnormal zones (Table 4). Also shown are data of the effect of folate (30 mg) on myocardial blood flow.
# [5] = Ado 70, folate 30 mg oral, mean ± SD
# [6] = Ado 140, folate 30 mg oral, mean ± SD
# [7] = Peak, folate 30 mg oral, mean ± SD
# [8] = Rest, folate 30 mg oral, mean ± SD
# [9] = folate 30 mg oral, mean ± SD, listed as folate
structure (smiles),measurement,setting,value
"Nc1nc2ncc(CNc3ccc(C(=O)N[C@@H](CCC(=O)O)C(=O)O)cc3)nc2c(=O)[nH]1 [Folate, N[4-[[(2-amino-1,4-dihydro-4-oxo-6-pteridinyl)methyl]amino]benzoyl]-L-glutamic acid]",time to peak blood levels after administration,[1],30 to 60 min
same,"Myocardial Blood Flow, ABNORMAL zones",[2]; [5],1.60 ± 1.15 ml/min/gm
same,"Myocardial Blood Flow, NORMAL zones",[2]; [5],2.01 ± 0.88 ml/min/gm
same,Ratio ABN:WNL (ABNORMAL/NORMAL zone MBF),[2]; [5],0.84 ± 0.37
same,"Myocardial Blood Flow, ABNORMAL zones",[2]; [6],1.76 ± 0.75 ml/min/gm
same,"Myocardial Blood Flow, NORMAL zones",[2]; [6],2.72 ± 0.74 ml/min/gm
same,Ratio ABN:WNL (ABNORMAL/NORMAL zone MBF),[2]; [6],0.67 ± 0.21
same,"Myocardial Blood Flow, ABNORMAL zones","[2]; Peak (adenosine-stimulated), folate 30 mg oral, mean ± SD",2.16±1.01 ml/min/gm
same,"Myocardial Blood Flow, ABNORMAL zones","[2]; Peak (adenosine-stimulated), folate 30 mg oral, mean ± SD, listed as folic acid",2.16±1.01 ml/min/gm
same,"Myocardial Blood Flow, NORMAL zones",[2]; [7],2.86 ± 0.67 ml/min/gm
same,Ratio ABN:WNL (ABNORMAL/NORMAL zone MBF),[2]; [7],0.75±0.24
same,"Myocardial Blood Flow, ABNORMAL zones",[2]; [8],0.74 ± 0.27 ml/min/gm
same,"Myocardial Blood Flow, NORMAL zones",[2]; [8],0.81 ± 0.19 ml/min/gm
same,Ratio ABN:WNL (ABNORMAL/NORMAL zone MBF),[2]; [8],0.95 ± 0.17
same,patients in whom flow reserve increased in ABNORMAL zones relative to NORMAL zones,[2]; after folate,83 % of patients
same,patients in whom peak MBF increased in ABNORMAL zones relative to NORMAL zones,[2]; after folate,85 % of patients
same,"Dilator Reserve (peak MBF minus rest MBF), ABNORMAL","[2]; folate 30 mg oral, mean ± SD",1.41 ± 1.08 ml/min/gm
same,"Dilator Reserve (peak MBF minus rest MBF), NORMAL","[2]; folate 30 mg oral, mean ± SD",2.12±0.69 ml/min/gm
same,"Dilator Reserve, Ratio ABN:WNL","[2]; folate 30 mg oral, mean ± SD",0.63 ± 0.36
same,"Dilator Reserve (peak MBF minus rest MBF), ABNORMAL",[2]; [9],1.41±1.08 ml/min/gm
same,"Dilator Reserve (peak MBF minus rest MBF), NORMAL",[2]; [9],2.12±0.69 ml/min/gm
same,increase in dilator reserve in ABNORMAL segments,[2]; folate 30 mg vs. placebo,83%
same,increase in peak MBF in ABNORMAL zones,[2]; folate 30 mg vs. placebo,49%
same,effect on myocardial blood flow in NORMAL regions,[2],did not affect
same,effect on myocardial blood flow in NORMAL regions,[2]; listed as folic acid,did not change
same,patients in whom ABNORMAL zone MBF improved after folate,[2]; of 13 patients with abnormal zones,10 patients
same,HR,[3]; Ado 70 (adenosine 70 μg/kg/min),70 ± 14 bpm
same,DBP (diastolic blood pressure),[3]; Ado 70,68 ± 11 mmHg
same,MAP (mean arterial blood pressure),[3]; Ado 70,95 ± 13 mmHg
same,"RPP (rate pressure product, SAP × HR)",[3]; Ado 70,8604 ± 2484 mmHg × bpm
same,SAP (systolic blood pressure),[3]; Ado 70,123 ± 18 mmHg
same,HR,[3]; Ado 140 (adenosine 140 μg/kg/min),82 ± 15 bpm
same,DBP (diastolic blood pressure),[3]; Ado 140,69 ± 10 mmHg
same,MAP (mean arterial blood pressure),[3]; Ado 140,95 ± 15 mmHg
same,"RPP (rate pressure product, SAP × HR)",[3]; Ado 140,9998 ± 3066 mmHg × bpm
same,SAP (systolic blood pressure),[3]; Ado 140,120 ± 21 mmHg
same,DBP (diastolic blood pressure),[3]; Rest,70 ± 9 mmHg
same,HR,[3]; Rest,61 ± 8 bpm
same,MAP (mean arterial blood pressure),[3]; Rest,96±11 mmHg and 96±2 mmHg
same,"RPP (rate pressure product, SAP × HR)",[3]; Rest,7483 ± 1798 mmHg × bpm
same,SAP (systolic blood pressure),[3]; Rest,121 ± 15 mmHg
same,reduction in diastolic blood pressure,[3]; folate 30 mg vs. placebo,5 mm Hg
same,change in HR,[3]; folate vs. placebo,no significant change
same,change in RPP,[3]; folate vs. placebo,no significant change
same,"effect on systolic, diastolic and mean arterial blood pressures","[3]; folate vs. placebo, P<0.01 ANOVA",significant reduction
same,patients with significant reduction in blood pressure after high-dose folate,[3]; without changes in homocysteine concentration,11/14
"CCCc1nn(C)c2c(=O)[nH]c(-c3cc(S(=O)(=O)N4CCN(C)CC4)ccc3OCC)nc12 [Sildenafil, 5-[2-ethoxy-5(-4-methylpiperazine-1-ylsulfonyl)phenyl]-1-methyl-3-propyl-1,6-dihydro-7H-pyrazolo[4,3-d]pyrimidin-7-one]",Myocardial Blood Flow,[4]; Ado 140,1.58 ± 0.55 ml/min/gm
same,Myocardial Blood Flow,[4]; Rest,0.64 ± 0.20 ml/min/gm
same,effect on myocardial blood flow in abnormal zones,[4]; sildenafil 100 mg vs. placebo,improved
